This passage reports IC50 and SGLT1/SGLT2 results from patent US8017792B2, “1-thio-D-glucitol derivatives” (Taisho Pharmaceutical Co., Ltd., priority 2005, dated 2011).

Molecules are shown by their SMILES.

The target of experiment [1] is T1, Human SGLT2 (Homo sapiens, UniProt P31639).
T1 construct: expressed in transfected cells; host or cells: CHO-K1
T1 sequence (P31639 1-672): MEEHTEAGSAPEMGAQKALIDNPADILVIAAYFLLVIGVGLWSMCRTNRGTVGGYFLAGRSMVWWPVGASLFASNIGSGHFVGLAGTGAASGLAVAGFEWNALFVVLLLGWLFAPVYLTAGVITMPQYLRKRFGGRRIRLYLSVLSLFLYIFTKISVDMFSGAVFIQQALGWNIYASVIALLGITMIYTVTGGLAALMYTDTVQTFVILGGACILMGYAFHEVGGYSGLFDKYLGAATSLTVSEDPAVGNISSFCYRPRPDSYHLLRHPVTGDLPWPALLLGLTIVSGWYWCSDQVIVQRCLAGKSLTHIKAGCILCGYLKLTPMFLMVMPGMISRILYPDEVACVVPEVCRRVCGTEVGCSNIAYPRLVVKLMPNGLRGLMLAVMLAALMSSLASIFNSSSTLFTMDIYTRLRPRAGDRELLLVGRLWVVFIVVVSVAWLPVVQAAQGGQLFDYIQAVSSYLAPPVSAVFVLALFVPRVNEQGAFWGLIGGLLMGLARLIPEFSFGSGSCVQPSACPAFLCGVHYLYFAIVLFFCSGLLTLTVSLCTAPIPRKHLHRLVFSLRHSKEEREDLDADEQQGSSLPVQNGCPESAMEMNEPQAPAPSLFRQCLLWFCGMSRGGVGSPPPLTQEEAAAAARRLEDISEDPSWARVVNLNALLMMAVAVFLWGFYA
Nature of the experiment: Sodium-dependent sugar uptake inhibition test in CHO-K1 cells stably expressing human SGLT2 (Test Example 2). In kind it is cell-based. Conditions: for IC50: CHO-K1 cells, [14C]methyl-α-D-glucopyranoside 1 mM, 37° C., one hour; for SGLT1/SGLT2: ratio of IC50 human SGLT1 to IC50 human SGLT2. The procedure:
(§1) Human SGLT1 sequence (NM_000343) was reverse-transcripted from human small intestinal mRNA, then amplified, and then introduced into pCMV-tag5A from Stratagene Corporation. Human SGLT2 sequence (NM_003041) was prepared from human nephric mRNA as with the above method, and then introduced into pcDNA3.1+hygro from Invitrogen Corporation. Each cloned sequence was confirmed to be identical with the reported sequence.
(§2) CHO-K1 cells were transfected with the human SGLT1 and human SGLT2 expression vectors using Lipofectamine 2000 (Invitrogen Corporation). SGLT expression cells were cultured in the presence of geneticin (SGLT1) or hygromycin B (SGLT2) of the concentration of 500 μg/mL to select resistant strains. Cells were obtained using sugar uptake specific activity as an index in the following system.
(§3) Cells stably expressing human SGLT1 and human SGLT2 were used in the sodium-dependent sugar uptake activity inhibition test. Cells were incubated in 1 mL of a pretreatment buffer solution (140 mM choline chloride, 2 mM KCl, 1 mM CaCl2, 1 mM MgCl2, 10 mM HEPES/5 mM Tris, pH 7.4) for 20 minutes. The pretreatment buffer solution was removed and 200 μL of an uptake buffer containing test compounds (methyl-α-D-glucopyranoside containing [^14C]methyl-α-D-glucopyranoside (0.1 mM for SGLT1 inhibition, 1 mM for SGLT2 inhibition), 140 mM NaCl, 2 mM KCl, 1 mM CaCl2, 1 mM MgCl2, 10 mM HEPES/5 mM Tris, pH 7.4) were added, and uptake reaction was performed at 37° C. for 30 minutes (SGLT1) or for one hour (SGLT2). After the reaction, cells were washed with 1 mL of a washing buffer (10 mM methyl-α-D-glucopyranoside, 140 mM choline chloride, 2 mM KCl, 1 mM CaCl2, 1 mM MgCl2, 10 mM HEPES/5 mM Tris, pH 7.4) twice and dissolved in 400 μL of 0.2 M NaOH solution. After Aquazole 2 (Perkin Elmer Corporation) was added and mixed well, radioactivity was measured with a liquid scintillation counter (Beckman Coulter Corporation). A buffer for uptake which contained no test compound was prepared as a control group. Another buffer solution for uptake containing choline chloride in place of NaCl was also prepared for basic uptake.

Experiment [2] concerns the target T2, Human SGLT1 (Homo sapiens, UniProt P13866).
T2 construct: expressed in transfected cells; host or cells: CHO-K1
T2 sequence (P13866 1-664): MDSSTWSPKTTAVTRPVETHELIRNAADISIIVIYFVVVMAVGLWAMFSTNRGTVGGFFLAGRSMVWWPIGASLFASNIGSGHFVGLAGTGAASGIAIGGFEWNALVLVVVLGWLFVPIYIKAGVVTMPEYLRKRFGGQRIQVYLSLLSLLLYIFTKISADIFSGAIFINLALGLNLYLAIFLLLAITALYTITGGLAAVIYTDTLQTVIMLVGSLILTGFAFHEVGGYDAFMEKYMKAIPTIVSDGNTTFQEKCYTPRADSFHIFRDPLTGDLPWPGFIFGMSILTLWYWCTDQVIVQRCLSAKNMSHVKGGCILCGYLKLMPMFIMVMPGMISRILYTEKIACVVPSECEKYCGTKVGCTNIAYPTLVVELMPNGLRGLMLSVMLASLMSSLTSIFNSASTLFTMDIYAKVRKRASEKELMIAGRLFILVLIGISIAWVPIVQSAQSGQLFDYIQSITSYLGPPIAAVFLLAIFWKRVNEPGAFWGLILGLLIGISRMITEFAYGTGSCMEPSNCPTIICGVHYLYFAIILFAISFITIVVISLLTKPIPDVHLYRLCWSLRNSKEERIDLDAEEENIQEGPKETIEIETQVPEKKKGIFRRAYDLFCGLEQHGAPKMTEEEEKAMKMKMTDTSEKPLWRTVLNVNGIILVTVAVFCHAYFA
As to the kind of experiment: Sodium-dependent sugar uptake inhibition test in CHO-K1 cells stably expressing human SGLT1 (Test Example 2). It counts as cell-based. The following applies: [14C]methyl-α-D-glucopyranoside 0.1 mM, 37° C., 30 minutes. The procedure: as §1, §2, §3

As usually defined, the IC50 is the point on the concentration scale where inhibition reaches its midpoint. Higher therefore signals weaker potency. For `CCc1ccc(Cc2cc([C@@H]3S[C@H](CO)[C@@H](O)[C@H](O)[C@H]3O)ccc2Cl)cc1` [Compound 95, (1S)-1,5-Anhydro-1-[4-chloro-3-(4-ethylbenzyl)phenyl]-1-thio-D-glucitol], in experiment [1], the IC50 was 28 nM and the SGLT1/SGLT2 is 22.3.
On to `CCc1ccc(Cc2ccc([C@@H]3S[C@H](CO)[C@@H](O)[C@H](O)[C@H]3O)s2)cc1` [Compound 139, (1S)-1,5-anhydro-1-[5-(4-ethylbenzyl)thiophen-2-yl]-1-thio-D-glucitol], for which the IC50 in experiment [1] turned out to be 114000 nM.
Regarding `OC[C@H]1S[C@@H](c2ccc(Cl)c(Cc3ccc(O)cc3)c2)[C@H](O)[C@@H](O)[C@@H]1O` [Compound 94, (1S)-1,5-Anhydro-1-[4-chloro-3-(4-hydroxybenzyl)phenyl]-1-thio-D-glucitol], in experiment [1], half-maximal inhibition (IC50) was put at 250 nM and the SGLT1/SGLT2 was 1.3. This molecule came in with an IC50 in experiment [2] of 300 nM.
For `CCOc1ccc(Cc2cc([C@@H]3S[C@H](CO)[C@@H](O)[C@H](O)[C@H]3O)c(OC)cc2Cl)cc1` [Compound 99, (1S)-1,5-anhydro-1-[4-chloro-5-(4-ethoxybenzyl)-2-methoxyphenyl]-1-thio-D-glucitol] the same measures were 32 nM, 178.6 and 5600 nM.
The like results for `COc1cc(C)c(Cc2ccc(C(C)C)cc2)cc1[C@@H]1S[C@H](CO)[C@@H](O)[C@H](O)[C@H]1O` [Compound 105, (1S)-1,5-Anhydro-1-[3-(4-isopropylbenzyl)-6-methoxy-4-methylphenyl]-1-thio-D-glucitol] were, in that order, 93 nM, 182.5 and 17000 nM.
Regarding `CSc1ccc(Cc2cc([C@@H]3S[C@H](CO)[C@@H](O)[C@H](O)[C@H]3O)ccc2Cl)cc1` [Compound 93, (1S)-1,5-Anhydro-1-[4-chloro-3-(4-methylthiobenzyl)phenyl]-1-thio-D-glucitol], in experiment [1], the IC50 was found to be 21 nM and the SGLT1/SGLT2 amounted to 21.0. In experiment [2], this molecule yielded an IC50 of 400 nM.
For `COc1cc(OC)c([C@@H]2S[C@H](CO)[C@@H](O)[C@H](O)[C@H]2O)cc1Cc1cc2ccccc2s1` [Compound 131, (1S)-1,5-Anhydro-1-[3-[(1-benzothien-2-yl)methyl]-4,6-dimethoxyphenyl]-1-thio-D-glucitol] the same measures were 890 nM, 4.7 and 4100 nM.
For `CCOc1ccc(Cc2cc([C@@H]3S[C@H](CO)[C@@H](O)[C@H](O)[C@H]3O)ccc2F)cc1` [Compound 81, (1S)-1,5-Anhydro-1-[3-(4-ethoxybenzyl)-4-fluorophenyl]-1-thio-D-glucitol] the same measures were 600 nM, 10.9 and 6500 nM.
As to `CCOc1ccc(Cc2cc([C@@H]3S[C@H](CO)[C@@H](O)[C@H](O)[C@H]3O)ccc2O)cc1` [Compound 82, (1S)-1,5-Anhydro-1-[3-(4-ethoxybenzyl)-4-hydroxyphenyl]-1-thio-D-glucitol], in experiment [1], the midpoint of inhibition, the IC50, lay at 3780 nM and the SGLT1/SGLT2 worked out at 4.0. Further, the IC50 in experiment [2] was 15000 nM.
Take `CCOc1ccc(Cc2cc([C@@H]3S[C@H](CO)[C@@H](O)[C@H](O)[C@H]3O)ccc2C)cc1` [Compound 86, (1S)-1,5-Anhydro-1-[3-(4-ethoxybenzyl)-4-methylphenyl]-1-thio-D-glucitol]: in experiment [1], the IC50 was 60 nM and the SGLT1/SGLT2 was 18.3. The molecule further gave an IC50 in experiment [2] of 1100 nM.
For the molecule `CCOc1ccc(Cc2ccc(OC)c([C@@H]3S[C@H](CO)[C@@H](O)[C@H](O)[C@H]3O)c2)cc1` [Compound 78, (1S)-1,5-Anhydro-1-[3-(4-ethoxybenzyl)-6-methoxy-phenyl]-1-thio-D-glucitol], in experiment [1], the IC50 was 1040 nM and the SGLT1/SGLT2 is recorded as 115.4. In experiment [2], this molecule had an IC50 of 120000 nM.
With `CCOc1ccc(Cc2cncc([C@@H]3S[C@H](CO)[C@@H](O)[C@H](O)[C@H]3O)c2)cc1` [Compound 138, (1S)-1,5-anhydro-1-[5-(4-ethoxybenzyl)pyridin-3-yl]-1-thio-D-glucitol], the midpoint of inhibition in experiment [1], the IC50, lay at 33000 nM.
Take `COc1cc(Cl)c(Cc2ccc(C(C)C)cc2)cc1[C@@H]1S[C@H](CO)[C@@H](O)[C@H](O)[C@H]1O` [Compound 103, (1S)-1,5-Anhydro-1-[4-chloro-3-(4-isopropylbenzyl)-6-methoxyphenyl]-1-thio-D-glucitol]: in experiment [1], the half-inhibitory concentration (IC50) came to 69 nM and the SGLT1/SGLT2 worked out at 347.9. Also, in experiment [2], the IC50 is 23900 nM.
For `CCc1ccc(Cc2cccc([C@@H]3S[C@H](CO)[C@@H](O)[C@H](O)[C@H]3O)c2)cc1` [Compound 74, (1S)-1,5-anhydro-1-[3-(4-ethylbenzyl)phenyl]-1-thio-D-glucitol] the same measures were 1190 nM, 12.8 and 15300 nM.
Turning to `CCc1ccc(Cc2cc([C@@H]3S[C@H](CO)[C@@H](O)[C@H](O)[C@H]3O)c(OC)cc2C)cc1` [Compound 101, (1S)-1,5-Anhydro-1-[3-(4-ethylbenzyl)-6-methoxy-4-methylphenyl]-1-thio-D-glucitol], in experiment [1], the IC50 was determined as 40 nM and the SGLT1/SGLT2 was found to be 63.1. In experiment [2], half-maximal inhibition (IC50) was put at 2600 nM.
On to `Cc1ccc(Cc2cc([C@@H]3S[C@H](CO)[C@@H](O)[C@H](O)[C@H]3O)ccc2Cl)cc1` [Compound 92, (1S)-1,5-Anhydro-1-[4-chloro-3-(4-methylbenzyl)phenyl]-1-thio-D-glucitol], for which, in experiment [1], half-maximal inhibition (IC50) required 30 nM and the SGLT1/SGLT2 amounted to 7.7. Also, in experiment [2], inhibition was half-maximal at 200 nM (IC50).
On to `CCOc1ccc(Cc2cc([C@@H]3S[C@H](CO)[C@@H](O)[C@H](O)[C@H]3O)ccc2Cl)c(F)c1` [Compound 91, (1S)-1,5-Anhydro-1-[4-chloro-3-(2-fluoro-4-ethoxybenzyl)phenyl]-1-thio-D-glucitol], for which, in experiment [1], the IC50 is 110 nM and the SGLT1/SGLT2 was 15.5. This molecule also registered an IC50 in experiment [2] of 1700 nM.
The like results for `CC(C)c1ccc(Cc2cc([C@@H]3S[C@H](CO)[C@@H](O)[C@H](O)[C@H]3O)ccc2Cl)cc1` [Compound 96, (1S)-1,5-Anhydro-1-[4-chloro-3-(4-isopropylbenzyl)phenyl]-1-thio-D-glucitol] were, in that order, 62 nM, 116.3 and 7300 nM.
Molecule `OC[C@H]1S[C@@H](c2cccc(Cc3ccc(-c4ccccc4)s3)c2)[C@H](O)[C@@H](O)[C@@H]1O` [Compound 134] had a concentration for half-maximal inhibition (IC50) in experiment [1] of 2910 nM.
